We go through 1 compound from patent publication US20090317491A1, “MANUFACTURING METHOD OF MEDICAL STERILIZED ISOTONIC SOLUTION HAVING LOW-CONCENTRATEDLY CONTROLLED FREE CHLORINE INCLUDING HYPOCHLOROUS ACID THEREIN” (priority 2007, published 2009).

Usually half-life stands for the time needed for the level to fall by half in the phase considered. Read a high half-life as slow decline.

The test system of series [1] is Micrococcus luteus. The conditions noted are these: normal temperature; cited from earlier work.
Series [2] relates to Pseudomonas aeruginosa. To be noted: normal temperature; cited from earlier work.
The subject of series [3] is Staphylococcus haemolyticus. The conditions noted are these: normal temperature; cited from earlier work.
The subject of series [4] is Corynebacterium amycolatum. The conditions noted are these: normal temperature; cited from earlier work.
The subject of series [5] is Vancomycin-resistent Enterococcus faecium. To be noted: normal temperature; cited from earlier work.
Series [6] deals with Escherichia coli. To be noted: normal temperature; cited from earlier work.
The subject of series [7] is Enterobacter aerogenes. The conditions noted are these: normal temperature; cited from earlier work.
Series [8] deals with Staphylococcus aureus. The conditions noted are these: normal temperature; cited from earlier work.
The subject of series [9] is Staphylococcus saprophyticus. To be noted: normal temperature; cited from earlier work.
The subject of series [10] is Staphylococcus hominis. The conditions noted are these: normal temperature; cited from earlier work.
Series [11] has as its system Sterptococcus pyogenes. The conditions noted are these: normal temperature; cited from earlier work.
In series [12] the test system is Haemophilus influenzae. The conditions noted are these: normal temperature; cited from earlier work.
Series [13] has as its system Klebsiella pneumoniae. The conditions noted are these: normal temperature; cited from earlier work.
The conditions of series [14]: mucosa of a nose and eyes; cited from earlier work.
The subject of series [15] is Staphylococcus epidermidis. The conditions noted are these: normal temperature; cited from earlier work.
The conditions of series [16]: HOCl versus OCl−; cited from earlier work.
The test system of series [17] is Proteus mirabilis. The conditions noted are these: normal temperature; cited from earlier work.
The conditions of series [18]: inside of a human body / mammal bodies; cited from earlier work.
A short description of series [19]: Half-life time of HOCl in water / outside the body (FIG. 16). To be noted: water (medical sterilized normal saline), neutral or subacid, outside of human body. Format: physicochemical. On the procedure: Especially, HOCl generated in the medical sterilized normal saline is very unstable in neutral or subacid area, and thus is tend to be reduced to a half only for 3 minutes. Therefore, the free chlorines should be supplied to patients within 3 minutes from manufacturing the medical normal saline. […] Therefore, prompt supply into the body right after manufacturing the medical normal saline can obtain enough time to sterilize or kill germs, fungi, bacteria, the causes of diseases.
FIG. 16 is a graph of the amount of the free chlorine in accordance with the 20 seconds operation time.

The subject of series [20] is Serratia marcescens. The conditions noted are these: normal temperature; cited from earlier work.
For series [21], the system named is Methicillin-resistent Staphylococcus aureus. The conditions noted are these: normal temperature; cited from earlier work.

Take `OCl` [HOCl, Hypochlorous acid]: the MBC in series [1] is 2.77 ppm; in series [2], 0.35 ppm; in series [3], 0.338 ppm; in series [4], 0.169 ppm; in series [5], 2.73 ppm; in [6], 0.7 ppm. Also, the MBC is recorded as 0.676 ppm in series [7]; 0.173 ppm in [8]; 0.35 ppm in series [9]; 1.4 ppm in series [10]; 0.169 ppm in [11]; 0.338 ppm in [12]. Also, the MBC in series [13] is on record as 1.7 ppm; in series [15], 0.338 ppm; in series [17], 0.340 ppm; in series [20] it was 0.169 ppm; in series [21], 0.682 ppm. In addition, the “concentration of HOCl that causes trouble on sensitive parts of human body and stench of the solution” value in [14] was “over 6 ppm”. In addition, the “sterilizing efficacy relative to OCl−” value in series [16] is given as 80 times. Besides, the half-life time in [18] was 44 h. Further, the half-life in [19] worked out at 3 min.
